The record followed here is PubChem BioAssay (NCI).

Test systems include OVCAR-8 ovarian; RXF 393 renal; HCT-116 colon; HCC-2998 colon; HT29 colon; 786-0 renal; OVCAR-4 ovarian; RPMI-8226 leukemia; ACHN renal.
What all share (assay): NCI-60 cell line screen, 48 h

Structures are written as SMILES.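 Grown in 96-well plates, cells were treated for 48 hours with each compound at five concentrations. Insufficient inhibition: endpoint recorded as highest concentration tested. GI50 marks 50% less growth. TGI: total growth inhibition.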 Where only a bound is given, the exact number is not on record here.

For `CC1=CC(N2C(=O)C(C)=CC2O)NC1=O` (stereo not given), the TGI with OVCAR-8 ovarian, in the test on RXF 393 renal, in the test on HCT-116 colon, in the test on HCC-2998 colon, in the test on HT29 colon and in the test on 786-0 renal was > 100 µM each time. In addition, the TGI in the test on OVCAR-4 ovarian was > 100 µM.
Take `N/N=c1\c2ccccc2c2cc3c(cc12)/c(=N/N)c1ccccc13`: the TGI in the test on OVCAR-8 ovarian, in the test on RXF 393 renal, in the test on HCT-116 colon, in the test with HCC-2998 colon, with HT29 colon and in the test on 786-0 renal was > 100 µM in each case. The TGI with OVCAR-4 ovarian, with RPMI-8226 leukemia and in the test on ACHN renal was > 100 µM each time.
For the molecule `Cc1ccc(NC(=O)/C(Cl)=C(/Cl)C(=O)O)cc1`, the TGI with RXF 393 renal worked out at 45.8 µM; in the test on HCT-116 colon it was 28.2 µM; in the test on HCC-2998 colon, 34.3 µM; with HT29 colon it was 35 µM; in the test on 786-0 renal, 32.6 µM; with OVCAR-4 ovarian, 33.1 µM. The TGI in the test with RPMI-8226 leukemia turned out to be 49.8 µM; in the test with ACHN renal it was 30.1 µM.
For `Cc1ccccc1-n1c2nc(=O)n(C)c(=O)c-2nc2ccccc21`, the TGI in the test on OVCAR-8 ovarian came out at 33.6 µM; in the test on RXF 393 renal, 39.2 µM; in the test on HCT-116 colon, 28.3 µM; in the test with HCC-2998 colon it was 24.2 µM; with HT29 colon it was 14.3 µM; in the test with 786-0 renal it was 58 µM. For the same molecule, the values for the TGI in the test on OVCAR-4 ovarian, with RPMI-8226 leukemia and in the test on ACHN renal were 26.6 µM, 44.9 µM and 21 µM, respectively.
Take `NCCNCc1c2ccccc2c(CNCCN)c2ccccc12`: the TGI in the test with OVCAR-8 ovarian is 60.3 µM; in the test on RXF 393 renal, 38.6 µM; with HCT-116 colon, 48.3 µM; with HCC-2998 colon it was 23.3 µM; with HT29 colon, > 100 µM; in the test with 786-0 renal, 53.4 µM. In the test on ACHN renal, the TGI was > 100 µM.
Turning to `COc1ccc2nc3cc(Cl)ccc3c(Sc3ccc([N+](=O)[O-])cc3)c2c1`, the GI50 with OVCAR-8 ovarian, in the test with RXF 393 renal, with HCT-116 colon, in the test with 786-0 renal and in the test on OVCAR-4 ovarian was > 100 µM throughout. Also, the TGI with OVCAR-8 ovarian was > 100 µM; in the test on RXF 393 renal it was > 100 µM; with HCT-116 colon it was > 100 µM; in the test with HCC-2998 colon, > 10 µM; in the test with HT29 colon, > 100 µM; with 786-0 renal it was > 100 µM. The TGI in the test on OVCAR-4 ovarian was > 100 µM; in the test on RPMI-8226 leukemia it was > 100 µM; in the test with ACHN renal it was > 10 µM.
`CC(=O)NC1C(OCc2ccccc2)OC(COC(=O)CCCCCCCCCCNc2ccc([N+](=O)[O-])c3[nH]c4ccccc4c(=O)c23)C(O)C1OC(C)C(=O)NC(C)C(=O)NC(CCC(N)=O)C(=O)OCc1ccccc1` (stereo not given): the TGI in the test on OVCAR-8 ovarian, in the test on HCT-116 colon, in the test with HCC-2998 colon, in the test on HT29 colon, with 786-0 renal and with OVCAR-4 ovarian was > 100 µM in each case. Moreover, the TGI in the test on RPMI-8226 leukemia and in the test on ACHN renal was > 100 µM throughout.
For `COC(=O)C1=C(C(=O)OC)C2(C)Nc3ccccc3C2=C(c2ccccc2)C1` (stereo not given), the TGI in the test on OVCAR-8 ovarian came out at 61.7 µM; with RXF 393 renal, 54.3 µM; in the test on HCT-116 colon, 44 µM; in the test with HCC-2998 colon it was 64.2 µM; with HT29 colon it was 70.6 µM; with 786-0 renal it was 81.4 µM. Moreover, the TGI in the test on OVCAR-4 ovarian was determined as 50.1 µM; with RPMI-8226 leukemia it was 29.6 µM; in the test with ACHN renal it was 62.3 µM.
Turning to `c1ccc2c(c1)N=C(c1cccc3ccccc13)CC(c1ccc3c(c1)OCO3)S2` (stereo not given), the TGI in the test with OVCAR-8 ovarian, with RXF 393 renal, in the test with HCT-116 colon, with HCC-2998 colon, in the test with HT29 colon and in the test with 786-0 renal was > 100 µM in each case. The TGI in the test on OVCAR-4 ovarian and in the test with ACHN renal was > 100 µM each time.
For the molecule `CC(C)NC(=O)CCN(C(=O)O)S(=O)(=O)c1ccc(NC(=O)c2ccccc2)cc1`, the TGI is > 94.7 µM in the test on OVCAR-8 ovarian; > 100 µM with RXF 393 renal; > 54.1 µM in the test with HCT-116 colon; > 100 µM with HCC-2998 colon; > 100 µM in the test with HT29 colon; > 100 µM in the test on 786-0 renal. Moreover, the TGI with OVCAR-4 ovarian is > 100 µM; in the test with RPMI-8226 leukemia, > 71.5 µM; with ACHN renal, > 100 µM.
On to `CN1CCN(C)C12C=CC=CC21CC1`, for which the TGI in the test with OVCAR-8 ovarian, with RXF 393 renal, in the test on HCT-116 colon, with HCC-2998 colon, with HT29 colon and in the test on 786-0 renal was > 100 µM each time. In addition, the TGI in the test on OVCAR-4 ovarian, with RPMI-8226 leukemia and with ACHN renal was > 100 µM each time.
Consider `CCNC(=O)O/N=C1\CCC2[C@@H]3CC=C4C[C@@H](OC5CCCCO5)CC[C@]4(C)C3CC[C@]12C` (stereo not given in full), for which the TGI in the test with OVCAR-8 ovarian is 18.2 µM; in the test on RXF 393 renal, 5.64 µM; with HCT-116 colon it was > 100 µM; in the test with HCC-2998 colon, 8.51 µM; in the test on HT29 colon it was 13.3 µM; in the test on 786-0 renal it was 6.48 µM. Besides, the TGI in the test with RPMI-8226 leukemia came to 4.8 µM; in the test with ACHN renal, 2.81 µM.
As to `COc1ccccc1NC(=O)c1nc2ccc([N+](=O)[O-])cc2nc1C`, the TGI with OVCAR-8 ovarian, in the test with HCT-116 colon, in the test on HCC-2998 colon, in the test on HT29 colon, in the test with 786-0 renal and in the test with OVCAR-4 ovarian was > 100 µM in each case. The TGI with RPMI-8226 leukemia and in the test on ACHN renal was > 100 µM in each case.
With `Cc1ccc(S(=O)OCC23CC4CC(CC(C4)C2)C3)cc1` (stereo not given), the TGI in the test on OVCAR-8 ovarian, in the test with RXF 393 renal, with HCT-116 colon, in the test with HCC-2998 colon, in the test on HT29 colon and in the test with 786-0 renal was > 100 µM each time. For the same molecule, the TGI in the test with OVCAR-4 ovarian, with RPMI-8226 leukemia and in the test with ACHN renal was > 100 µM each time.
As for `OCc1c[te]c(-c2ccccc2)c1`, the TGI was > 100 µM in the test on OVCAR-8 ovarian; > 100 µM in the test on RXF 393 renal; 33.3 µM in the test on HCT-116 colon; > 100 µM in the test on HCC-2998 colon; > 100 µM in the test on 786-0 renal; > 100 µM with OVCAR-4 ovarian. For the same molecule, the figures for the TGI in the test on RPMI-8226 leukemia and in the test with ACHN renal were 86.8 µM and > 100 µM, respectively.
As to `CC#CC1C2CCCC1(CSc1ccccc1)NC(=O)O2` (stereo not given), the TGI in the test with OVCAR-8 ovarian, in the test with RXF 393 renal, in the test with HCT-116 colon, with HCC-2998 colon, in the test on HT29 colon and in the test with 786-0 renal was > 100 µM each time. In addition, the TGI in the test with OVCAR-4 ovarian, with RPMI-8226 leukemia and in the test on ACHN renal was > 100 µM each time.
With `O=C(COC(=O)c1cccc2c(=O)c3ccccc3[nH]c12)Nc1ccc(C(=O)O)cc1`, the TGI in the test on OVCAR-8 ovarian, with RXF 393 renal, with HCT-116 colon, in the test with HCC-2998 colon, with HT29 colon and with 786-0 renal was > 100 µM throughout. Besides, the TGI in the test with OVCAR-4 ovarian and in the test on ACHN renal was > 100 µM in each case.
On to `Cc1cc(C)nc(NS(=O)(=O)c2ccc(Nc3c4ccc(Cl)cc4nc4c(C(=O)NCCN(C)C)cccc34)cc2)n1`, for which the TGI in the test with OVCAR-8 ovarian, in the test on RXF 393 renal, in the test with HCT-116 colon, with HCC-2998 colon, with HT29 colon and in the test on 786-0 renal was > 100 µM in each case. In addition, the TGI in the test on OVCAR-4 ovarian, in the test with RPMI-8226 leukemia and with ACHN renal was > 100 µM in each case.
`NNC(=O)N/N=C1\C(=O)N(c2ccc(Cl)c(Cl)c2)C(=O)C(=O)C1c1nc2ccccc2s1` (stereo not given): the TGI with OVCAR-8 ovarian, in the test on RXF 393 renal, in the test on HCT-116 colon, with HCC-2998 colon, with HT29 colon and in the test on 786-0 renal was > 100 µM in each case. Besides, the TGI with OVCAR-4 ovarian and in the test with ACHN renal was > 100 µM each time.
With `O=C(/C(=C\c1ccc(Cl)cc1)c1ccccc1)c1ccccc1`, the TGI with OVCAR-8 ovarian, in the test with HCT-116 colon, in the test on HCC-2998 colon, with HT29 colon, with 786-0 renal and in the test on OVCAR-4 ovarian was > 100 µM in each case. The TGI with RPMI-8226 leukemia and in the test with ACHN renal was > 100 µM throughout.
Take `Cn1c(/C=C/[N+](=O)[O-])cc2ccccc21`: the GI50 in the test with OVCAR-8 ovarian is 3.17 µM; in the test on RXF 393 renal, 1.66 µM; in the test on HCT-116 colon, 1.04 µM; in the test with HCC-2998 colon, 1.84 µM; in the test on HT29 colon it was 1.68 µM; with 786-0 renal, 2.15 µM. In addition, the GI50 with OVCAR-4 ovarian is 10.3 µM; in the test with RPMI-8226 leukemia, 3.18 µM; in the test with ACHN renal, 3.42 µM. In addition, the TGI in the test on OVCAR-8 ovarian was 31.7 µM; in the test with RXF 393 renal it was 3.08 µM; in the test on HCT-116 colon it was 2.45 µM; in the test with HCC-2998 colon, 3.36 µM; in the test on HT29 colon it was 4.02 µM; in the test on 786-0 renal it was 4.08 µM. The values for the TGI in the test with OVCAR-4 ovarian, with RPMI-8226 leukemia and with ACHN renal were 92.1 µM, > 100 µM and 13.2 µM, respectively.
